Assay results published in a melting point compilation (Tetko et al.; mined from patent text by program, amines drawn as free bases though some values may be those of a salt).

First: N#Cc1ccc(C(O)CCN2CC=C(c3ccc(Cl)cc3)CC2)cc1 (stereo not drawn)
Second: N#CCCNC(=O)c1cccc(-c2cccc(Oc3ccc(Cl)cc3)n2)c1
The melting point of the first is lower: 117 to 118 °C for the first, 143 to 144 °C for the second.

First: CC(C)(Oc1ccc(OCCCCc2cc(-c3ccc(C(F)(F)F)cc3)no2)cc1)C(=O)O
Second: O=C(Nc1nc2c(Oc3cc(-c4ccc(C(F)(F)F)cc4)ncn3)cccc2s1)C(O)c1ccccc1 (stereo not drawn)
The melting point of the first is lower: 103 to 104 °C for the first, 198 to 205 °C for the second.

First: CN1CCN(C(=O)CC2(C)OCCc3c2[nH]c2ccccc32)CC1 (stereo not drawn)
Second: O=C(c1cc2c(OC[C@@H](O)CN3CCC(c4ccc5ccccc5c4)CC3)cccc2[nH]1)N1CCCC1
The melting point of the first is lower: 80 to 84 °C for the first, 158 to 161 °C for the second.

First: O=C1c2ccccc2C(=O)c2cc(OCC3CO3)ccc21 (stereo not drawn)
Second: CCCCn1c2c(c3ccccc3c1=O)C(=O)c1cc3c(cc1-2)OCO3
The melting point of the first is lower: 162 to 167 °C for the first, 200 to 201 °C for the second.

Compared with `Cc1cccc2c1CCC(=NO)C2(O)C(F)(F)F` (stereo not drawn), `O=C1CCc2c(OCCCl)cccc21` is lower in melting point: 154 to 156 °C for the first, 56 to 58 °C for the second.

Compared with `COc1ccccc1Nc1cccc2c1C(=O)N(C1CCC(=O)NC1=O)C2=O` (stereo not drawn), `Cc1cccc(NS(=O)(=O)c2ccc(N3CCNC3=O)cc2)c1C` is higher in melting point: 223 to 225 °C for the first, 231 to 232 °C for the second.

First: Cc1cn2c(n1)CN=C(c1ccccc1Cl)c1cc(Cl)ccc1-2
Second: Cc1cc(NC(=O)N2CCc3cc(N(C)C)ccc32)c2ccccc2n1
The melting point of the first is lower: 170 °C for the first, 252 to 253 °C for the second.

First: COc1ccc2c(c1)OCC(c1ccc(C(F)(F)F)cc1)C2c1ccc(O)cc1 (stereo not drawn)
Second: CN1CCC(C(O)(c2ccc(F)cc2)c2ccc3ccccc3c2)CC1 (stereo not drawn)
The melting point of the first is higher: 211 to 213 °C for the first, 164 to 169 °C for the second.

Compared with `CC(=O)SCC(Cc1ccccc1)C(=O)NN1CCCC1` (stereo not drawn), `O=C(c1nc2ccc(O)cc2[nH]1)N1CCC(Cc2ccccc2)CC1` is higher in melting point: 91 °C for the first, 186 °C for the second.

`O=c1[nH]sc2nc(-c3ccccc3)nc(CCc3ccccc3)c12` and `CCC(=O)OC1=C(c2nnc(-c3ccccc3)o2)N(C)S(=O)(=O)c2ccccc21` cannot be ordered by melting point: 144 to 147 °C for the first, 143 to 146 °C for the second.

First: Cc1nc(N2C[C@@H](C)N(Cc3cc(F)cc(F)c3)C2=O)sc1C(=O)NCc1ccccn1
Second: COc1ccc(C(=O)Nc2ccccc2)cc1NCc1cc(F)cc(F)c1
The melting point of the first is lower: 147 to 148 °C for the first, 175 to 177 °C for the second.

First: Clc1cc2nc3cc4ccccc4[nH]c-3c2cc1Br
Second: O=c1c2ccccc2ccc2cc(F)ccc12
The melting point of the first is higher: over 246 °C for the first, 119 to 123 °C for the second.

Compared with `CC(C)N1CCC(c2c[nH]c3ccc(NS(C)(=O)=O)cc23)CC1`, `CS(=O)(=O)Nc1ccc(CCOc2ccc(C=C3SC(=O)NC3=O)cc2)cc1` is higher in melting point: 104 to 108 °C for the first, 130 °C for the second.

Compared with `NCCCn1nc2c3c(c(Cl)ccc31)C(=O)c1c(OCc3ccccc3)ccc(OCc3ccccc3)c1-2`, `Cc1oc(-c2ccccc2)nc1COc1ccc(COc2nn(Cc3ccccc3)cc2CCC(=O)O)cc1` is lower in melting point: 180 to 184 °C for the first, 125 to 126 °C for the second.

First: CC(C)(C)N(NC(=O)c1ccccn1)C(=O)c1ccc(Cl)c(Cl)c1
Second: CC(=O)OCC(=O)c1ccc(Cl)c(Cl)c1
The melting point of the first is higher: 175 to 178 °C for the first, 68 to 70 °C for the second.

First: CCCCCC(CC(=O)Nc1cc(C(N)=O)ccc1C(C)(C)C)c1ccc(C(=O)O)cc1OC (stereo not drawn)
Second: CCCCCOc1cc(C(=O)O)cc([N+](=O)[O-])c1C(=O)c1ccccc1
The melting point of the first is higher: 204 to 206 °C for the first, 163 to 165 °C for the second.

First: CCc1ccccc1NS(=O)(=O)c1cc(S(=O)(=O)Nc2ccccc2CC)c2cc(O)ccc2c1
Second: COc1ccc(C(=O)Nc2ccccc2)cc1NCc1ccc(OC(C)=O)cc1
The melting point of the first is lower: 127 to 129 °C for the first, 193 to 195 °C for the second.

First: O=[N+]([O-])c1ccc(N(CCO)CCO)cc1F
Second: Cc1c(N)ccc([N+](=O)[O-])c1Cl
The melting point of the first is lower: 99 to 101 °C for the first, 134 to 138 °C for the second.

First: CC(C)C(NC(=O)OCc1csc(N2CCCC2)n1)C(=O)NC(Cc1ccccc1)CC(O)C(Cc1ccccc1)NC(=O)OCc1cncs1 (stereo not drawn)
Second: CCCCCCC(c1cccc(C(=O)NC(c2ccccc2)c2ccccc2)c1)c1nnn[nH]1 (stereo not drawn)
The melting point of the first is lower: 146 to 148 °C for the first, 198 to 200 °C for the second.

First: CC1CC(C)(C)Nc2ccc3c(c21)C(c1ccc(Cl)cc1)Oc1ccccc1-3 (stereo not drawn)
Second: COCOc1ccccc1-c1ccc(-c2ccc(C(=O)O)cc2)cc1-c1ccc2c(c1)C(C)(C)CCC2(C)C
The melting point of the first is higher: 158 to 159 °C for the first, 132 to 135 °C for the second.

First: CC(=O)Nc1csc(-c2ccc3c(=O)n(CC(C)C)c(CNC(=O)OC(C)(C)C)c(-c4ccccc4)c3c2)n1
Second: Cn1c(=O)c2c(nc(N3CCC(NC(=O)OC(C)(C)C)C3)n2Cc2ccccc2Br)n(C)c1=O (stereo not drawn)
The melting point of the first is higher: 227 to 228 °C for the first, 104 to 106 °C for the second.

First: COC(=O)c1cc(=O)c2cc3[nH]c(=O)oc3cc2[nH]1
Second: COC(=O)C1=C(O)C(=O)O[C@@H]1C
The melting point of the first is higher: 297 °C for the first, 94 to 96 °C for the second.

First: Cc1nnc(C=Cc2ccccc2OCC2CO2)s1 (stereo not drawn)
Second: CC(C)Cn1c(=O)n(C)c(=O)c2cc(Cn3cnc4ccccc43)sc21
The melting point of the first is lower: 134 to 135 °C for the first, 198 to 199 °C for the second.

First: O=C1CCCN1CCCn1cnc2cnc3cc(-c4ccccc4)ccc3c21
Second: CCOCc1nc2c(N)nc3cc(-c4cccnc4)ccc3c2n1CCCCS(N)(=O)=O
The melting point of the first is lower: 138 to 141 °C for the first, 250 to 252 °C for the second.

Compared with `O=C(O)CCCC(=O)N1CCN(c2cc3c(cc2F)c(=O)c(C(=O)O)c2sccn23)CC1`, `CCCCn1c(=O)c2cc(C(=O)O)cn2c2cc(Cl)ccc21` is lower in melting point: 276 to 278 °C for the first, 275 to 276 °C for the second.

First: O=C(O)CCCCCNC(=O)OCc1ccccc1
Second: O=c1cc(O)c2cccnc2n1Cc1ccccc1
The melting point of the first is lower: 54 to 55.5 °C for the first, 250 to 253 °C for the second.

First: O=c1ccn(C2CC(O)C(COC3(c4ccccc4)c4ccccc4Oc4ccccc43)O2)c(=O)[nH]1 (stereo not drawn)
Second: CN1C[C@H](CN2CCN(C(c3ccccc3)c3ccccc3)CC2)C=C2c3cccc4[nH]c(Cl)c(c34)C[C@H]21
The melting point of the first is lower: 157 to 160 °C for the first, 208 °C for the second.

First: COc1cc2c(cc1C(F)(F)F)N(C(=O)Nc1ccc(-c3ccccn3)s1)CC2
Second: COc1ccc(C(=O)c2c(N)sc3c2CCN(C(=O)c2ccc(Cl)cc2)C3)cc1OC
The melting point of the first is higher: 205 to 215 °C for the first, 138 to 140 °C for the second.

First: COCCCn1c(=O)[nH]c2ncc(-c3ccc(O)cc3)nc21
Second: COc1cc(CS(=O)c2ccc(O)cc2)cc(OC)c1OC (stereo not drawn)
The melting point of the first is higher: 208 to 210 °C for the first, 153 °C for the second.

Compared with `CCCCc1ccc(C2(C)OC(=C(C#N)C#N)C(C#N)=C2C)cc1` (stereo not drawn), `CCCc1c(S)ccc2c(C)c(CC(=O)OC)c(=O)oc12` is higher in melting point: 129 to 130 °C for the first, 131 to 132 °C for the second.

First: Nc1nc2c(s1)CCN(CC1=Cc3ccccc3C1)CC2
Second: N#Cc1c(N)n[nH]c1N1CCN(Cc2ccccc2)CC1
The melting point of the first is lower: 134 to 138 °C for the first, 157 to 158 °C for the second.

First: Cc1c(C(=O)O)cc(Cl)c2c1C(=O)CCS2
Second: Cc1cc2c(nc1N)C(=O)N(C(C)C1CC1)C2=O (stereo not drawn)
The melting point of the first is lower: 190 to 192 °C for the first, 219 to 220 °C for the second.

First: COc1cc(N)c(Cl)cc1-c1nc(-c2cccnc2)c(C)[nH]1
Second: COc1ccc(Cl)cc1C(=N)Nc1cc(Cl)cc(NC(=O)/C=C/c2ccccc2Cl)c1
The melting point of the first is lower: 178 to 180 °C for the first, 226 to 228 °C for the second.

Compared with `Cc1ccccc1N1CCN(S(=O)(=O)c2ccc([N+](=O)[O-])cc2)CC1`, `Cc1ccc(N2CCN(Cc3ccc4ccc(=O)oc4c3)CC2)cc1` is lower in melting point: 176 to 178 °C for the first, 154 to 155 °C for the second.

First: COC(=O)[C@H](Cc1cc(Cl)c(Oc2ccc3cc(OC)ccc3c2)c(Cl)c1)NC(=O)C(F)(F)F
Second: COC(=N)c1nn(-c2c(Cl)cc(C(F)(F)F)cc2Cl)c(N)c1S(C)=O (stereo not drawn)
The melting point of the first is higher: 188 to 189 °C for the first, 179 to 180 °C for the second.

First: COC(=O)c1cc(-c2ccc(OC)c(OC)c2)nn(CC2CC2)c1=O
Second: COc1cc(/C=C\c2ccc([N+](=O)[O-])cc2)cc(OC)c1OC
The melting point of the first is lower: 136 to 137 °C for the first, 140 to 142 °C for the second.

Compared with `COC(=O)c1nc(Cl)cc(N)c1OC`, `CCc1cccc(C)c1CNc1nc(OC)cc(NC)c1[N+](=O)[O-]` is higher in melting point: 78 to 79 °C for the first, 166 to 167 °C for the second.

Compared with `CSc1ccc(CC#N)cc1`, `ON=C(Cl)c1ccc(F)cc1` is higher in melting point: 44 to 45 °C for the first, 74.5 to 75 °C for the second.

Compared with `O=[N+]([O-])c1c(NCCO)cc(C(O)CSCC(O)c2cc(NCCO)c([N+](=O)[O-])c(NCCO)c2)cc1NCCO` (stereo not drawn), `CCCCCCCCCCc1ccc(C(=O)COC)c(OC(=O)c2cc(OC)c(OC)cc2OC)c1` is lower in melting point: 157 °C for the first, 80 to 81 °C for the second.

First: CCOC(=O)CN(C)C(=S)CCc1nc2c(F)c(F)cc(F)c2s1
Second: CSc1cnc2c(C)c(C)sc2c1O
The melting point of the first is lower: 83 to 85 °C for the first, 233 to 236 °C for the second.

First: O=C(Nc1ccc(CCc2ccc(Cl)c(Cl)c2)cc1)C1CSc2ccccc2C1=O (stereo not drawn)
Second: NC(=O)C(Sc1nc2cc(Cl)ccc2s1)c1ccccc1 (stereo not drawn)
The melting point of the first is higher: 234 to 236 °C for the first, 181 to 183 °C for the second.

First: O=C(NCc1cc(C(F)(F)F)cc(C(F)(F)F)c1)c1c(-c2ccccc2)c2cccnc2c(=O)n1CCCO
Second: C=S1C(=NC(F)(F)F)C(=NC(F)(F)F)N(c2ccccc2)C1C(C)=O (stereo not drawn)
The melting point of the first is lower: 129 to 130 °C for the first, 189 to 191 °C for the second.

First: CCC(CC)Nc1nc(NC(C)=O)nc(C(C)(C)F)n1
Second: CC(=O)Oc1ccc(S(=O)(=O)c2cnc(C)nc2Nc2c(C)cc(C)cc2C)cc1
The melting point of the first is lower: 109 to 111 °C for the first, 142 to 144 °C for the second.

First: NC1=CC2=C(CC1)CCc1c2[nH]c(=O)c(=O)n1Cc1ccccc1
Second: CCCCCN1C(=O)C2(COc3cc(F)c(Cl)cc32)c2ccccc21 (stereo not drawn)
The melting point of the first is higher: 290 °C for the first, 74 to 76 °C for the second.

First: Sc1ccc(-n2cnnn2)cc1
Second: Cc1nccn1CC1CCc2c(c3ccccc3n2C)C1NO (stereo not drawn)
The melting point of the first is lower: 120 to 122 °C for the first, 140 to 144 °C for the second.

Compared with `CNC(=O)c1cccc(NC(=O)Cc2ccc(C)cc2)c1`, `O=C(NC1CCCCC1)NS(=O)(=O)c1ccc(CCNC(=O)N2Cc3ccccc3C2=O)cc1` is higher in melting point: 174 to 175 °C for the first, 211 to 213 °C for the second.

Going from `COc1ccccc1C(CNc1c(C#N)cnn2cccc12)N1CCOCC1` (stereo not drawn) to `CCCCCCCOC(=O)CON=c1c2nccc3cccc(c32)n2cccc12`, the melting point falls from 157 °C to 98 °C.

First: CS(=O)(=O)c1ccc(/C(=C\C2CCCCCC2)C(=O)O)cc1
Second: O=C(O)COc1cccc(C(O)C(c2ccccc2)C2SCCCS2)c1 (stereo not drawn)
The melting point of the first is higher: 164 to 166 °C for the first, 99 to 101 °C for the second.

Compared with `CC1(C)CCCC2(C)C3CC=C(C=O)CC(=O)C3CCC12` (stereo not drawn), `CCCc1c(OCCCCCOc2cccc3cc(C(=O)O)oc23)ccc2c1OCCC2=O` is lower in melting point: 87 to 88 °C for the first, 79.5 to 81 °C for the second.
